The nature of this data set: Dissociation constant (Kb, pKb) of the water-soluble compounds.

As a reminder, the pKb is the negative decadic logarithm of the Kb, by convention in mol/L. A high value points to a small Kb.

From the text: The following aqueous solutions were applied onto the dye-fixing layer.

With `O=C([O-])c1ccc(O)cc1.[Na+]` [4-Hydroxybenzoic acid Na salt], the pKb was 12.1.
Compound `O.O.O.O.O.O.O.O.O.[Na+].[Na+].[Na+].[S-]c1nc([S-])nc([S-])n1` [Trisodium trithiocyanurate nonahydrate] displayed a pKb of 3. Further, the Kb (dissociation constant) is recorded as 1 × 10^−3.

For the origin of these results see patent publication US6926936B2, “Ink-jet recording sheet with improved ozone resistance” (Felix Schoeller Jr. Foto-und Spezialpapiere GmbH & Co. KG, priority 2002, dated 2005).
